Results reported in article PMC12735718, “Novel Adamantane–Sclareol Hybrids Exploit ROS Vulnerability to Overcome Multidrug-Resistance in Glioblastoma Cells” (Molecules, 2025).

How the values were obtained:
[1] = tested on: ASK1 protein in U87 cells; experiment: ASK1 protein expression by flow cytometry, U87; assay type: cell-based, human; settings: U87, 2 µM and 4 µM, 48 h
Method: Flow cytometry was used to assess TrxR1 and ASK1 protein expression in the U87 and U87-TxR cell lines. Cells were seeded and allowed to attach overnight before exposure to compounds 2 and 5 at final concentrations of 2 μM and 4 μM. After 48 h treatment, cells were collected by trypsinization, rinsed with PBS, and subsequently fixed in 4% PFA for 10 min at room temperature. For permeabilization, ice-cold absolute methanol was added, and the samples were maintained at −20 °C overnight. Following this step, cells were washed in PBS and incubated for 1 h in 0.5% BSA/PBS to block nonspecific binding. Pelleted cells were then resuspended in primary antibodies diluted in 0.5% BSA/PBS [(ASK1, 1:200 (ab45178, Abcam, Cambridge, UK); TrxR1, 1:500 (ab124954, Abcam, Cambridge, UK)] and incubated overnight at +4 °C. Cells were then washed in PBS and incubated for 1 h at room temperature in the dark with fluorescently labeled anti-rabbit IgG secondary antibody (Alexa Fluor 488, ab150097, Abcam, Cambridge, UK), diluted 1:1000 in 0.5% BSA/PBS. Following incubation, samples were washed, resuspended in cold PBS, and analyzed by flow cytometry. A minimum of 10,000 events per sample were acquired, and fluorescence was detected in a green fluorescence channel (525 nm). Data acquisition and processing were performed using CytExpert software (version 2.4.0.28; Beckman Coulter, Indianapolis, IN, USA).

[2] = tested on: H2O2 and peroxynitrite anion levels in U87 cells; experiment: ROS detection by DHR, U87; assay type: cell-based, human; settings: 4 µM, 24 h and 48 h
Method: (§1) The levels of ROS were measured in U87 and U87-TxR cells by flow cytometry. The production of superoxide anions was detected using DHE fluorescence dye, while production of H2O2 and peroxynitrite anions was detected using DHR fluorescence dye. Cells were seeded in 6-well plates (150,000 cell/well) and incubated overnight. The cells were then treated with compounds 2 or 5 (4 μM) for 24 h and 48 h. CDDP (10 μM) was used as a positive control. After the treatment period, the cells were stained with DHE or DHR for 30 min in the dark. Following incubation, cells were harvested with trypsinization and washed twice in cold phosphate buffer solution (PBS). Fluorescence was measured on a CytoFlex flow cytometer (Beckman Coulter, Indianapolis, IN, USA). Green fluorescence from the oxidized DHR dye was detected at 525 nm, while the red fluorescence from ethidium derived from DHE was detected at 585 nm. At least 10,000 events were assayed for each sample. The results were analyzed by CytExpert 2.4.0.28 software (Beckman Coulter, Indianapolis, IN, USA).

A-172 cells = experiment: MTT cell viability assay, A-172; assay type: cell-based; settings: Homo sapiens, 72 h treatment
Method: (§2) Cell viability was measured using the colorimetric MTT assay based on the reduction of MTT into formazan dye. Cell lines were seeded into 96-well cell culture plates (4000 cells/well) in appropriate medium. After overnight incubation, cells were treated with increasing concentrations of 1, 2, 3, 4, 5, and 6 (0.5, 1, 2, 4, and 8 µM). After 72 h treatment, MTT solution (4 mg/mL) was added and plates were incubated at 37 °C with 5% CO2 for 3 h. After incubation, formazan crystals were dissolved using 100 µL DMSO, resulting in a purple color. The absorbance was measured at 570 nm with a reference wavelength of 690 nm using an automated microplate reader (MultiskanSky, Thermo Scientific, USA). The IC50 values were determined by non-linear regression analysis in GraphPad Prism 8.0.2. software (GraphPad Software, Boston, MA, USA).

[3] = tested on: TrxR (SH-SY5Y cell lysate); experiment: Colorimetric detection of cell lysate TrxR activity (DTNB); assay type: biochemical, human; settings: 50 µM, DTNB absorbance at 412 nm over 20 min
Excerpt: We further analyzed the potential of adamantane–sclareol hybrids to inhibit TrxR enzyme activity using a colorimetric assay for the detection of TrxR activity in cell lysates. This kinetic assay is based on the ability of TrxR to reduce its substrate 5,5ʹ-dithiobis(2-nitrobenzoic acid) (DTNB) to the yellow product 5-thio-2-nitrobenzoic acid (TNB) in the presence of NADPH. The absorbance of the produced TNB is considered equivalent to the enzymic activity of TrxR. In the kinetic assay, the absorbance of DTNB was measured over 20 min, resulting in a curve showing the dependence of absorbance on time.
TrxR enzyme activity in cell lysate was determined by the reduction of the TrxR substrate DTNB to the yellow product TNB in the presence of NADPH (Acros Organics, Thermo Fisher Scientific, Waltham, MA, USA). Lysate from human neuroblastoma SH-SY5Y cells was used for the TrxR assay. SH-SY5Y cells were grown to 80% confluence, washed twice with PBS, and detached using Hanks-based enzyme-free dissociation solution (Millipore, Billeri-ca, MA, USA). Collected cells were centrifuged at 2000 rpm for 3 min and rinsed in PBS buffer. After additional centrifugation, cells were lysed on ice using Lysis Buffer (50 mM Tris, 150 mM NaCl, 1 mM EDTA, 1% NP40, 0.1% SDS, 0.5% Na-deoxycholate, pH 7.8) containing protease inhibitor mix G (SERVA Electrophoresis GmbH, Heidelberg, Germany) and phosphatase inhibitor cocktail 3 (Sigma-Aldrich, Darmstadt, Germany). The cell lysates were centrifuged at 16,000× g for 15 min at 4 °C. The protein concentrations of the supernatants were determined using a Pierce^TM BCA protein assay kit (Thermo Fisher Scientific, Waltham, MA, USA). The reactions were run in 96-well plates, in a final volume of 100 μL, in 50 mM potassium phosphate buffer (pH 7.0) containing 50 μg of cell lysate proteins, 1 mM EDTA, 50 mM KCl, 0.2 mg/mL BSA, and 0.25 mM NADPH. […] Enzyme kinetics were monitored on an automated microplate reader (MultiskanSky, Thermo Fisher Scientific, Waltham, MA, USA) by measuring the increase in absorbance at 412 nm for 20 min. […]

[4] = tested on: H2O2 and peroxynitrite anion levels in U87-TxR cells; experiment: ROS detection by DHR, U87-TxR; assay type: cell-based, human; settings: 4 µM, 24 h and 48 h
Method: as §1

U87 cells = experiment: MTT cell viability assay, U87; assay type: cell-based; settings: Homo sapiens, U-87 MG, 72 h treatment
Method: as §2

Structure (SMILES)	ASK1 level [1]	H2O2 and peroxynitrite anion levels (DHR) [2]	IC50 (A-172 cells) [µM]	TrxR enzyme activity [3]	DHR fluorescence (H2O2 and peroxynitrite anion levels) [4]	IC50 (U87 cells) [µM]
CC1(C)CCC[C@]2(C)[C@@H](CC[C@@](C)(O)/C=C/c3ccc(CNCCCCCCCCNCC45CC6CC(CC(C6)C4)C5)s3)[C@](C)(O)CC[C@@H]12 [Compound 2]	remained unchanged	slight or no increase	2.05 ± 0.37	do not inhibit TrxR enzyme activity	increase in DHR fluorescence	2.59 ± 0.068
CC1(C)CCC[C@]2(C)[C@@H](CC[C@@](C)(O)/C=C/c3ccc(CNCCCCCCCCNCC45CC6CC(CC(C6)C4)C5)o3)[C@](C)(O)CC[C@@H]12 [Compound 5]	remained unchanged	slight or no increase	4.74 ± 0.129	do not inhibit TrxR enzyme activity	increase in DHR fluorescence	5.13 ± 0.139
